From US20260297085A1, “1 H-PYRROLO[2,3-B]PYRIDIN-4-YL]-2-OXOPYRROLIDINE-3-CARBONITRILE DERIVATIVES AS TYROSINE KINASE 2 (TYK2) INHIBITORS FOR THE TREATMENT OF INFLAMMATORY DISEASES” (BIOGEN MA INC., priority 2023, published 2026)
Structures can show the parent of a compound that is named as a salt.

What was measured:
[1] = target: T1, human TYK2 kinase domain (JH1) (Homo sapiens, UniProt P29597); test: JH1 biochemical assay for TYK2 (ADP-Glo kinase assay, recombinant JH1 catalytic domain, JAK3-974 peptide, 10 μM ATP)
T1 construct: recombinantly generated catalytic kinase (also known as JH1) domain of human JAK1, JAK2, JAK3 and TYK2
T1 sequence (P29597 897-1176 limits assumed): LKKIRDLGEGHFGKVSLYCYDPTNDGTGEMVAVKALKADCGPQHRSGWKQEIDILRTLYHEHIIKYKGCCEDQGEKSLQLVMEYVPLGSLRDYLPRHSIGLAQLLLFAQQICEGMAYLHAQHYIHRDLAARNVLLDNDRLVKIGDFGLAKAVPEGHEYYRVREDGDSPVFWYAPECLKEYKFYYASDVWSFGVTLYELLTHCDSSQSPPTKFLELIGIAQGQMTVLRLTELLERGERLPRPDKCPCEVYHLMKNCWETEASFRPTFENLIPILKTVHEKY
Method in brief: (§1)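 ADP-Glo luminescence with 50 μM peptide and 100 min reactions: JAK1 4 nM with JAK3-342 peptide; JAK2, JAK3 and TYK2 at 0.2, 0.3 and 2 nM with JAK3-974 peptide. Compounds tested from 10 or 1 μM top, 11 points, 3-fold. IC50 from a 4-parameter logistic fit of normalized activity.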

[2] = target: T2, human JAK1 kinase domain (JH1) (Homo sapiens, UniProt P23458); test: JH1 biochemical assay for JAK1 (ADP-Glo kinase assay, recombinant JH1 catalytic domain, JAK3-342 peptide, 35 μM ATP)
T2 construct: recombinantly generated catalytic kinase (also known as JH1) domain of human JAK1, JAK2, JAK3 and TYK2
T2 sequence (P23458 875-1153 limits assumed): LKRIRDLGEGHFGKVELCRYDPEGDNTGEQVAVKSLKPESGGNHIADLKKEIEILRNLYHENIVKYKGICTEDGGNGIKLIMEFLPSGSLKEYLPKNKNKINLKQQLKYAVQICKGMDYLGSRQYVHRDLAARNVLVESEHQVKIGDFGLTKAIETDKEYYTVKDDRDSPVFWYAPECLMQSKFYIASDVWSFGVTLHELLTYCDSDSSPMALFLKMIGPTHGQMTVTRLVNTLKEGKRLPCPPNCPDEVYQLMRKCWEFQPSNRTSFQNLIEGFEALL
Method in brief: as §1

[3] = target: T3, human JAK2 kinase domain (JH1) (Homo sapiens, UniProt O60674); test: JH1 biochemical assay for JAK2 (ADP-Glo kinase assay, recombinant JH1 catalytic domain, JAK3-974 peptide, 15 μM ATP)
T3 construct: recombinantly generated catalytic kinase (also known as JH1) domain of human JAK1, JAK2, JAK3 and TYK2
T3 sequence (O60674 849-1124 limits assumed): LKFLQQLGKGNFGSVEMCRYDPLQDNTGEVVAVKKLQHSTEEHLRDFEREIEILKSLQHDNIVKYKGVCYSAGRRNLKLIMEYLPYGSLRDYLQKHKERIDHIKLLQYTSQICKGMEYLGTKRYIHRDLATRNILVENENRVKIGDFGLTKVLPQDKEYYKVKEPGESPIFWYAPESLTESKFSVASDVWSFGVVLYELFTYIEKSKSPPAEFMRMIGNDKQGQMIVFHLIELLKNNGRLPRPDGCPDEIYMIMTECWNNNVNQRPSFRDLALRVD
Method in brief: as §1

[4] = target: T4, human JAK3 kinase domain (JH1) (Homo sapiens, UniProt P52333); test: JH1 biochemical assay for JAK3 (ADP-Glo kinase assay, recombinant JH1 catalytic domain, JAK3-974 peptide, 4 μM ATP)
T4 construct: recombinantly generated catalytic kinase (also known as JH1) domain of human JAK1, JAK2, JAK3 and TYK2
T4 sequence (P52333 822-1111 limits assumed): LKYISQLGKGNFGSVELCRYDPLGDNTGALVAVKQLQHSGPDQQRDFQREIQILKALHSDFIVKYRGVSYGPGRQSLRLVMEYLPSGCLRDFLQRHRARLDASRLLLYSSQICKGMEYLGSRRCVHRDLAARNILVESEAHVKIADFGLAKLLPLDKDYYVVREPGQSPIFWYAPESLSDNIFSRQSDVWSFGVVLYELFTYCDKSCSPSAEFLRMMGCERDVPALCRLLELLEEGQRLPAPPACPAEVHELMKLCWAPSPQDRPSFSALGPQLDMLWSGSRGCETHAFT
Method in brief: as §1

[5] = target: Tyk2 kinase activity on STAT4 in NK92 cells (Homo sapiens, UniProt P29597); test: pSTAT4 cell assay (MSD; NK92 cells, 30 ng/mL IL2 stimulation); type: cell-based; settings: 30 ng/mL IL2, 15 minutes
Tyk2 kinase activity on STAT4 in NK92 cells, sequence (P29597 whole entry): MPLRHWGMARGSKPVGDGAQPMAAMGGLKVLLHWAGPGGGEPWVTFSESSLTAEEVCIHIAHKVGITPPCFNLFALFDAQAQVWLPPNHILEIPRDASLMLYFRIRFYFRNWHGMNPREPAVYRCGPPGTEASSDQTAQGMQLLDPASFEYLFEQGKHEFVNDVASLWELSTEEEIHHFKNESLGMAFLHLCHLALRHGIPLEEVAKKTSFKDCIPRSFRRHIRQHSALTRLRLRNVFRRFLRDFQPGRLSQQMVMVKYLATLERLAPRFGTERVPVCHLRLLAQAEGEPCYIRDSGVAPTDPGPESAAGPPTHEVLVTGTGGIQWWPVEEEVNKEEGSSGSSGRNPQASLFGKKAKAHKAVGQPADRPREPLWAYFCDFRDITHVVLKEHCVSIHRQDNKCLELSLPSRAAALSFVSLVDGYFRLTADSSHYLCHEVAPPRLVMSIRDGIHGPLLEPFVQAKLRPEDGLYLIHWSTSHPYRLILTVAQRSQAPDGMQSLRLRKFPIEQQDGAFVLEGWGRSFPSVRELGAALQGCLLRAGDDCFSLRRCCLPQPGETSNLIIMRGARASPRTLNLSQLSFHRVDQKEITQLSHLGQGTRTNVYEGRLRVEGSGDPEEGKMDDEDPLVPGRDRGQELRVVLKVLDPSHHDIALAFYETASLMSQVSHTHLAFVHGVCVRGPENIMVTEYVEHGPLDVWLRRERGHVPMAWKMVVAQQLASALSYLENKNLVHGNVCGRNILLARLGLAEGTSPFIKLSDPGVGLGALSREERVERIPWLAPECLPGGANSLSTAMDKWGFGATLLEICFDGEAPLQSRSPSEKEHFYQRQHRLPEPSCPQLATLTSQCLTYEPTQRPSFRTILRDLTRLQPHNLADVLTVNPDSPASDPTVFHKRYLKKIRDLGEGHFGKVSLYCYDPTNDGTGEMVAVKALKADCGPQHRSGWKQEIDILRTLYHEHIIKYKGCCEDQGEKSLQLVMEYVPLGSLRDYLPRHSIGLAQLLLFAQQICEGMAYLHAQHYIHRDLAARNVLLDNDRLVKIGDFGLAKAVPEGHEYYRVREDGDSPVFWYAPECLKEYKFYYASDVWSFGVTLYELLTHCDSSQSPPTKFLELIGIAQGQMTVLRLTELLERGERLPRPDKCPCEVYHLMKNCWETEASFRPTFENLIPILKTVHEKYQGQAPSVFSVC
Method: The inhibitory potency of compounds of the disclosure against the Tyk2 kinase activity on STAT4 was evaluated using an MSD-platform plate-based assay format. NK92 cells natively expressing STAT4 and Tyk2 were serum-starved to reduce background phosphorylation levels, then cells were treated compounds for 1 hr with a 10-point four-fold dilution series starting at 10 μM. Cells were then stimulated with 30 ng/mL IL2 for 15 minutes. Cells were lysed and […] levels were quantitated using an MSD plate-based assay with anti-STAT4 antibodies. The data were normalized and the percent activity versus log concentration of compound were fitted with a 4-parameter logistic model to generate to generate IC50 curves.

[6] = target: JAK2 kinase activity on STAT5 in TF1 cells (Homo sapiens, UniProt O60674); test: pSTAT5 cell assay (MSD; TF1 cells, 30 ng/mL IL-3 stimulation); type: cell-based; settings: 30 ng/mL IL-3, 15 minutes
JAK2 kinase activity on STAT5 in TF1 cells, sequence (O60674 whole entry): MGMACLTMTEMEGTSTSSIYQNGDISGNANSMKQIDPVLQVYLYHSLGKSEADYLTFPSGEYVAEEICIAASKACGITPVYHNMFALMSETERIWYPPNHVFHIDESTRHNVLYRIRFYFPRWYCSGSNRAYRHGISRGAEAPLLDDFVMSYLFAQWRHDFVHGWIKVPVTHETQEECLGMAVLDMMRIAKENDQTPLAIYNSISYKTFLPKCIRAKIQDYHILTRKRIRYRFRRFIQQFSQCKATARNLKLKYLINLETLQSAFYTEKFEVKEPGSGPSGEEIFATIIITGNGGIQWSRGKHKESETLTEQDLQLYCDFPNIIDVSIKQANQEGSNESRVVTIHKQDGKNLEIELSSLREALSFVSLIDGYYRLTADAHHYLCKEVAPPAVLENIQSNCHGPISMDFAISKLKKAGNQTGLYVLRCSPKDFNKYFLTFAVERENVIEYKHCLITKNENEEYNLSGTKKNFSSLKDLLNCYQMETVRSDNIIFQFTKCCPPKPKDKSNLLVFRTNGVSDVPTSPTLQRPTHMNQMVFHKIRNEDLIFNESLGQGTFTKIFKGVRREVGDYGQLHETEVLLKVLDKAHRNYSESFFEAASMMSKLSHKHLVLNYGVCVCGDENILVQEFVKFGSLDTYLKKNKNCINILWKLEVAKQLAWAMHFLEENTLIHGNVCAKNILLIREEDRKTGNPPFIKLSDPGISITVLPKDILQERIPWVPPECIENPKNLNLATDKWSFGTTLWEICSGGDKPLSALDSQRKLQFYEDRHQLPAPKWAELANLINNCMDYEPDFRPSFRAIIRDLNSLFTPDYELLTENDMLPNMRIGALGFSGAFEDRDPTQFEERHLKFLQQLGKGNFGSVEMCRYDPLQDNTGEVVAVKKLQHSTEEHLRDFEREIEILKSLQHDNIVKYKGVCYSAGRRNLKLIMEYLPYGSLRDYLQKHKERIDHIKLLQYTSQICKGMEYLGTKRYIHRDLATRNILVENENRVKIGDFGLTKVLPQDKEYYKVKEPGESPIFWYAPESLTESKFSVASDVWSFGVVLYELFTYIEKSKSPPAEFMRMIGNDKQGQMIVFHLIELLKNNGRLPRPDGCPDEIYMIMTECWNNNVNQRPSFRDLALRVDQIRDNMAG
Method: The inhibitory potency of compounds of the disclosure against the JAK2 kinase activity on STAT5 was evaluated using an MSD-platform plate-based assay format. TF1 cells natively expressing STAT5 and JAK2 were serum-starved to reduce background phosphorylation levels, then cells were treated with compounds of disclosure for 1 hour with a 10-point four-fold dilution series starting at 10 μM. Cells were then stimulated with 30 ng/mL IL-3 for 15 minutes. Cells were then lysed and pSTAT5 levels were quantitated using an MSD plate-based assay with anti-STAT5 antibodies. The data were normalized and the percent activity versus log concentration of compound was fitted with a 4-parameter logistic model to generate a curve and an IC50 value.

[7] = target: JAK1 kinase activity on STAT3 in TF1 cells (Homo sapiens, UniProt P23458); test: pSTAT3 cell assay (MSD; TF1 cells, 30 ng/mL IL-6 stimulation); type: cell-based; settings: 30 ng/mL IL-6, 15 minutes
JAK1 kinase activity on STAT3 in TF1 cells, sequence (P23458 whole entry): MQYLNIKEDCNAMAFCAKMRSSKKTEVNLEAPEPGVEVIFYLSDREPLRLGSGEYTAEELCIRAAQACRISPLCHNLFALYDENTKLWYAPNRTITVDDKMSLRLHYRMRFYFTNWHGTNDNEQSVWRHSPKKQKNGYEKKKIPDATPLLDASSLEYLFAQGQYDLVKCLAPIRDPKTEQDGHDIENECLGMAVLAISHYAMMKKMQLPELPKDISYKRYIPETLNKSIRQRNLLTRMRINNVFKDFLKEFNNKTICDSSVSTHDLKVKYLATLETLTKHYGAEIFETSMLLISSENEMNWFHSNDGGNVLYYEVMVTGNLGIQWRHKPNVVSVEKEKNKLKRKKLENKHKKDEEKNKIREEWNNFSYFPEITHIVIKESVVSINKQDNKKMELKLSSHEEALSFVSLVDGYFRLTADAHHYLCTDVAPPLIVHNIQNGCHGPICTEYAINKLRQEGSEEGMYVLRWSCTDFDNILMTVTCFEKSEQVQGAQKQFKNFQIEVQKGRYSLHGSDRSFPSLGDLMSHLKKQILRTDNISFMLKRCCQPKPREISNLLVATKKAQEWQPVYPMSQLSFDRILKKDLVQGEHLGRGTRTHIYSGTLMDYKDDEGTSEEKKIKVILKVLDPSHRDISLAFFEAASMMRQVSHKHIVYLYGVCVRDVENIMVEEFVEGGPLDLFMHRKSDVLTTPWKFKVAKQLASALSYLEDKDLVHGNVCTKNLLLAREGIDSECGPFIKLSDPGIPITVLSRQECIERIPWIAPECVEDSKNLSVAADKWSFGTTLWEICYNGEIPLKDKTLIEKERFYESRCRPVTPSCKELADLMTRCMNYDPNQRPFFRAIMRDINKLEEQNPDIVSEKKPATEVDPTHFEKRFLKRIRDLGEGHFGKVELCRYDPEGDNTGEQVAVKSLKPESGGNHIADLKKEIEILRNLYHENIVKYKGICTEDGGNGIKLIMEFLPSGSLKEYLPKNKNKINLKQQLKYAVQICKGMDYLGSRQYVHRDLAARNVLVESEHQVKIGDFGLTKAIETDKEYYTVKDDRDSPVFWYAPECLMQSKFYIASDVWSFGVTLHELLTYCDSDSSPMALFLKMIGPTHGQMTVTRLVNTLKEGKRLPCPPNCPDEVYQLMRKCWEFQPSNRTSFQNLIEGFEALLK
Method: The inhibitory potency of compounds of the disclosure against the JAK1 kinase activity on STAT3 was evaluated using an MSD-platform plate-based assay format. TF1 cells natively expressing STAT3 and JAK1 were serum-starved to reduce background phosphorylation levels, then cells were treated with compounds of the disclosure for 1 hour with a 10-point four-fold dilution series starting at 10 μM. Cells were then stimulated with 30 ng/mL interleukin 6 (IL-6) for 15 minutes. Cells were lysed and pSTAT3 levels were quantitated using an MSD plate-based assay with anti-STAT3 antibodies. The data were normalized and the percent activity versus log concentration of compound was fitted with a 4-parameter logistic model to generate IC50 curves.

| Compound | IC50 ([1]; JH1 kinase domain, ADP-Glo) [nM] | IC50 ([2]; JH1 kinase domain, ADP-Glo) [nM] | IC50 ([3]; JH1 kinase domain, ADP-Glo) [nM] | IC50 ([4]; JH1 kinase domain, ADP-Glo) [nM] | IC50 [5] [nM] | IC50 [6] [nM] | IC50 [7] [nM] | IC50 ([1]; TYK2 JH1, ADP-Glo) [nM] | IC50 ([2]; JAK1 JH1, ADP-Glo) [nM] | IC50 ([3]; JAK2 JH1, ADP-Glo) [nM] | IC50 ([4]; JAK3 JH1, ADP-Glo) [nM] |
| --- | --- | --- | --- | --- | --- | --- | --- | --- | --- | --- | --- |
| Cn1cc(-c2cc3c(N4C[C@@H](C(F)F)[C@@](C#N)(C5CC5)C4=O)ccnn3c2)cn1 (racemic) [Example 153, rac-(3R,4S)-3-cyclopropyl-4-(difluoromethyl)-1-(6-(1-methyl-1H-pyrazol-4-yl)pyrrolo[1,2-b]pyridazin-4-yl)-2-oxopyrrolidine-3-carbonitrile] | 20 to 50 | 100 to 1000 | 1000 to 5000 | 1000 to 5000 | > 100 | > 10000 | > 10000 | – | – | – | – |
| COc1ccc(-c2cn3nccc3c(N3C[C@@H](C)[C@@](C#N)(C4CC4)C3=O)n2)nc1 [Example 213, (3R,4S)-3-cyclopropyl-1-(6-(5-methoxypyridin-2-yl)pyrazolo[1,5-a]pyrazin-4-yl)-4-methyl-2-oxopyrrolidine-3-carbonitrile] | 5 to 20 | < 100 | 1000 to 5000 | 100 to 1000 | > 100 | – | – | – | – | – | – |
| CC(C)[C@@]1(C#N)C(=O)N(c2nc(-c3cnn(C)c3)cn3ncc(F)c23)C[C@H]1C [Example 310, (3R,4S)-1-(3-fluoro-6-(1-methyl-1H-pyrazol-4-yl)pyrazolo[1,5-a]pyrazin-4-yl)-3-isopropyl-4-methyl-2-oxopyrrolidine-3-carbonitrile] | – | – | – | – | > 100 | – | – | 5 to 20 | 100 to 1000 | 100 to 1000 | < 100 |
| Cc1cc(-c2cc(N3C[C@@H](C)[C@@](C#N)(C4CC4)C3=O)c3ccnn3c2)n[nH]1 [Example 318, (3R,4S)-3-cyclopropyl-4-methyl-1-(6-(5-methyl-1H-pyrazol-3-yl)pyrazolo[1,5-a]pyridin-4-yl)-2-oxopyrrolidine-3-carbonitrile] | – | – | – | – | > 100 | – | – | 5 to 20 | 100 to 1000 | 1000 to 5000 | 100 to 1000 |
| C[C@@H]1CN(c2ccnn3cc(-c4cnn(C5(CO)CC5)c4)cc23)C(=O)[C@]1(C#N)C1CC1 [Example 322, (3R,4S)-3-cyclopropyl-1-(6-(1-(1-(hydroxymethyl)cyclopropyl)-1H-pyrazol-4-yl)pyrrolo[1,2-b]pyridazin-4-yl)-4-methyl-2-oxopyrrolidine-3-carbonitrile] | – | – | – | – | 50 to 100 | – | – | < 5 | 100 to 1000 | 100 to 1000 | < 100 |
| C[C@@H]1CN(c2ccnn3cc(-c4cnn(CC5(C)COC5)c4)cc23)C(=O)[C@]1(C#N)C1CC1 [Example 325, (3R,4S)-3-cyclopropyl-4-methyl-1-(6-(1-((3-methyloxetan-3-yl)methyl)-1H-pyrazol-4-yl)pyrrolo[1,2-b]pyridazin-4-yl)-2-oxopyrrolidine-3-carbonitrile] | – | – | – | – | 20 to 50 | – | – | < 5 | < 100 | < 100 | < 100 |
| COCc1cnn(-c2cc3c(N4C[C@@H](C)[C@@](C#N)(C5CC5)C4=O)ccnn3c2)c1 [Example 337, (3R,4S)-3-cyclopropyl-1-(6-(4-(methoxymethyl)-1H-pyrazol-1-yl)pyrrolo[1,2-b]pyridazin-4-yl)-4-methyl-2-oxopyrrolidine-3-carbonitrile] | – | – | – | – | > 100 | – | – | 20 to 50 | 100 to 1000 | 100 to 1000 | 100 to 1000 |
| C[C@@H]1CN(c2ccnn3cc(-n4cc(C(F)F)cn4)cc23)C(=O)[C@]1(C#N)C1CC1 [Example 338, (3R,4S)-3-cyclopropyl-1-(6-(4-(difluoromethyl)-1H-pyrazol-1-yl)pyrrolo[1,2-b]pyridazin-4-yl)-4-methyl-2-oxopyrrolidine-3-carbonitrile] | – | – | – | – | > 100 | – | – | 20 to 50 | 1000 to 5000 | 100 to 1000 | 100 to 1000 |

The remaining lines, values ahead:

| IC50 ([1]; JH1 kinase domain, ADP-Glo) [nM] | IC50 ([2]; JH1 kinase domain, ADP-Glo) [nM] | IC50 ([3]; JH1 kinase domain, ADP-Glo) [nM] | IC50 ([4]; JH1 kinase domain, ADP-Glo) [nM] | IC50 [5] [nM] | IC50 [6] [nM] | IC50 [7] [nM] | IC50 ([1]; TYK2 JH1, ADP-Glo) [nM] | IC50 ([2]; JAK1 JH1, ADP-Glo) [nM] | IC50 ([3]; JAK2 JH1, ADP-Glo) [nM] | IC50 ([4]; JAK3 JH1, ADP-Glo) [nM] | Compound |
| --- | --- | --- | --- | --- | --- | --- | --- | --- | --- | --- | --- |
| < 5 | < 100 | 100 to 1000 | 100 to 1000 | 5 to 20 | 1000 to 5000 | 1000 to 5000 | – | – | – | – | C[C@@H]1CN(c2ccnn3cc(-c4cnn(C5CC5(F)F)c4)cc23)C(=O)[C@]1(C#N)C1CC1 (mixture of isomers) [Example 154, (3R,4S)-3-cyclopropyl-1-(6-(1-(2,2-difluorocyclopropyl)-1H-pyrazol-4-yl)pyrrolo[1,2-b]pyridazin-4-yl)-4-methyl-2-oxopyrrolidine-3-carbonitrile] |
| – | – | – | – | 20 to 50 | 1000 to 5000 | 100 to 1000 | < 5 | < 100 | < 100 | < 100 | C[C@@H]1CN(c2nc(-c3cnn([C@H]4CO[C@@H]4C)c3)cn3ncc(F)c23)C(=O)[C@]1(C#N)C1CC1 (relative stereo) [Example 306, (3R,4S)-3-cyclopropyl-1-(3-fluoro-6-(1-((2R,3 S)-2-methyloxetan-3-yl)-1H-pyrazol-4-yl)pyrazolo[1,5-a]pyrazin-4-yl)-4-methyl-2-oxopyrrolidine-3-carbonitrile and (3R,4S)-3-cyclopropyl-1-(3-fluoro-6-(1-((2S,3R)-2-methyloxetan-3-yl)-1H-pyrazol-4-yl)pyrazolo[1,5-a]pyrazin-4-yl)-4-methyl-2-oxopyrrolidine-3-carbonitrile] |
| – | – | – | – | 50 to 100 | – | – | < 5 | < 100 | < 100 | < 100 | C[C@@H]1CN(c2nc(-c3ccc(N(C)C(=O)OC(C)(C)C)nc3)cn3nccc23)C(=O)[C@]1(C#N)C1CC1 [Example 266, tert-butyl (5-(4-((3R,4S)-3-cyano-3-cyclopropyl-4-methyl-2-oxopyrrolidin-1-yl)pyrazolo[1,5-a]pyrazin-6-yl)pyridin-2-yl)(methyl)carbamate trifluoroacetate] |
| – | – | – | – | 50 to 100 | – | – | < 5 | < 100 | < 100 | < 100 | C[C@@H]1CN(c2nc(-c3cnn(CC4(C)COC4)c3)cn3ncc(F)c23)C(=O)[C@]1(C#N)C1CC1 [Example 303, (3R,4S)-3-cyclopropyl-1-(3-fluoro-6-(1-((3-methyloxetan-3-yl)methyl)-1H-pyrazol-4-yl)pyrazolo[1,5-a]pyrazin-4-yl)-4-methyl-2-oxopyrrolidine-3-carbonitrile] |
| – | – | – | – | > 100 | – | – | 20 to 50 | 1000 to 5000 | 100 to 1000 | 100 to 1000 | C[C@@H]1CN(c2ccnn3cc(-n4cc(C5CN(C)CCO5)cn4)cc23)C(=O)[C@]1(C#N)C1CC1 (stereo partly drawn) [Example 317, (3R,4S)-3-cyclopropyl-4-methyl-1-(6-(4-(4-methylmorpholin-2-yl)-1H-pyrazol-1-yl)pyrrolo[1,2-b]pyridazin-4-yl)-2-oxopyrrolidine-3-carbonitrile] |
| – | – | – | – | > 100 | – | – | 20 to 50 | 100 to 1000 | 100 to 1000 | 100 to 1000 | C[C@@H]1CN(c2ccnn3cc(-n4cc(CC#N)cn4)cc23)C(=O)[C@]1(C#N)C1CC1 [Example 339, (3R,4S)-1-(6-(4-(cyanomethyl)-1H-pyrazol-1-yl)pyrrolo[1,2-b]pyridazin-4-yl)-3-cyclopropyl-4-methyl-2-oxopyrrolidine-3-carbonitrile] |
| – | – | – | – | 20 to 50 | – | – | < 5 | < 100 | < 100 | < 100 | C[C@@H]1CN(c2nc(-c3cnn(C4COC4)c3)cc3ncsc23)C(=O)[C@]1(C#N)C1CC1 [Example 352, (3R,4S)-3-cyclopropyl-4-methyl-1-(6-(1-(oxetan-3-yl)-1H-pyrazol-4-yl)thiazolo[5,4-c]pyridin-4-yl)-2-oxopyrrolidine-3-carbonitrile] |
